The values that follow come from US6288051A, “7 α-(5-methylaminopentyl)-estratrienes, process for their production, pharmaceutical preparations that contain these 7 α(5-methylaminopentyl)-estratrienes as well as their use for the production of pharmaceutical agents” (Schering Aktiengesellschaft, priority 1996, dated 2001).

Read-outs that look alike come from different tables or passages of the source.

The subject of one assay is MVLN cells. The experiment in a line: Transactivation assay, MVLN cells transfixed with reporter gene Vit-TK-LUC. The format is cell-based. The conditions noted are these: Homo sapiens, read-out: IC50 [nM] MVLN cells. As to the method: (§1) The antiestrogenic action of the compounds according to the invention was determined in transactivation assays [Demirpence, E.; Duchesne M.-J.; Badia, E.; Gagne, D. and Pons, M.: MVLN Cells: A Bioluminescent MCF-7-Derived Cell Line to Study the Modulation of Estrogenic Activity; J. Steroid. Molec. Biol. Vol. 46, No. 3, 355-364 (1993) as well as Berry, M.; Metzeger D.; Chambon, P.: Role of the Two Activating Domains of the Estrogen Receptor in the Cell-type and Promoter-context Dependent Agonistic Activity of the Anti-estrogen 4-Hydroxytamoxifen; The EMBO Journal Vol. 9, 2811-2818 (1990)].
The IC50 values for the new compounds lie in the nanomolar range. […] The HeLa cells are transfixed with human estrogen receptor-expression vector (HEGO) and Vit-TK-CAT reporter genes, and the MVLN cells are transfixed with reporter gene Vit-TK-LUC: […]
(In general: Reporter assays use an easily measured gene product as a stand-in for the process of interest.)

The next assay has as its target T1, human estrogen receptor (Homo sapiens, UniProt P03372).
T1 construct: expressed in transfected cells; host or cells: HeLa
T1 sequence (P03372 1-595): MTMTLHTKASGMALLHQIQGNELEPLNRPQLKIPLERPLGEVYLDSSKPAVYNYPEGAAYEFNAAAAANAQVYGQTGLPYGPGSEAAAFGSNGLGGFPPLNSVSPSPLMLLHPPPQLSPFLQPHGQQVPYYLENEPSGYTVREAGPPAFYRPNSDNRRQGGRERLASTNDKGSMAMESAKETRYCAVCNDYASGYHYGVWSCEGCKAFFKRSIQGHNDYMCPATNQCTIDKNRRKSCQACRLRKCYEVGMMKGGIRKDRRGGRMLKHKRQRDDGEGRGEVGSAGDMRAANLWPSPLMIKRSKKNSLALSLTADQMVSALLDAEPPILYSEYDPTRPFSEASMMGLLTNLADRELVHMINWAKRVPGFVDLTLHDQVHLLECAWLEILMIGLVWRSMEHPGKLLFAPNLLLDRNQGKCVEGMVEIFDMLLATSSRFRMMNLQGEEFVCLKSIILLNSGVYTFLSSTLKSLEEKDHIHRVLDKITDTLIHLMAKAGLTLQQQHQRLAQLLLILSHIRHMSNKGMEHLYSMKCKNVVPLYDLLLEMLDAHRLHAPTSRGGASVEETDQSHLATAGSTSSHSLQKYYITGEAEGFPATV
The experiment in a line: Transactivation assay, HeLa cells transfixed with human estrogen receptor-expression vector (HEGO) and Vit-TK-CAT reporter gene. The format is cell-based. As to the method: as §1
The HeLa cells are transfixed with human estrogen receptor-expression vector (HEGO) and Vit-TK-CAT reporter genes, and the MVLN cells are transfixed with reporter gene Vit-TK-LUC: […]

In assay [1] the test system is DMBA-induced breast cancer. The experiment in a line: DMBA-induced breast cancer in rats. The format is in vivo, rat. The conditions noted are these: oral, 3 mg/kg/day (FIG. 4). From the text:
2.2 DMBA*-induced breast cancer in rats
2.2. Influencing Tumor Growth in the […] Model in Rats (DMBA Tumor Model)
*9,10-Dimethyl-1,2-benanthracene
The growth of the DMBA-induced breast neoplasm of rats is largely dependent on estrogens and prolactin. Active antiestrogens, antigestagens, and aromatase inhibitors result in the inhibition of tumor growth, and substances that have antigonadotropic and androgenic properties also exert a tumor-inhibiting action.
45-47-day-old female rats (Sprague-Dawley, breeder ZiH or Mollegard), 8-10 animals per group.
The animals receive 10 mg of DMBA orally on a one-time basis. Then, the animals are examined weekly by palpation for tumor development. Six to 10 weeks after DNBA treatment, approximately 1 to 10 tumors develop per animal. The tumor size is determined once a week with the aid of a sliding gauge. If at least one tumor has reached a specific size (150 mm^2 of tumor surface area), an ovariectomy is performed on the animals, or the treatment of the animals with the test substance begins. The treatment is carried out in most cases daily for a period of about 28 days (for details on execution, see Test Plan). The tumor size is subsequently determined once a week.
The total tumor size per animal is determined before the beginning of treatment (initial values). For each group, the average values of the percentage changes of the tumor size relative to the initial value are then calculated. In addition, the percentage of animals per group is determined, whose tumors in each case: (1) have totally disappeared (total regression); partially disappeared (partial regression); (3) are unchanged (no change); or (4) are further enlarged (enlargement).
The values that are found are tested for significance in the Dunnett Test and are plotted graphically.

In the case of `CN(CCCCC[C@@H]1Cc2cc(O)ccc2[C@H]2CC[C@@]3(C)[C@@H](CC[C@]3(C)O)[C@H]12)CCCSCCCC(F)(F)C(F)(F)F` [Example 2, 17α-Methyl-7α-{5-[N-methyl-N-3-(4,4,5,5,5-pentafluoropentyl-thio)-propylamino]-pentyl}-estra-1,3,5(10)-triene-3,17β-diol], the IC50 turned out to be 0.6 nM with MVLN cells (MVLN) and 0.2 nM against human estrogen receptor.
The matching figures for `C#C[C@]1(O)CC[C@H]2[C@@H]3[C@H](CCCCCN(C)CCCSCCCC(F)(F)C(F)(F)F)Cc4cc(O)ccc4[C@H]3CC[C@@]21C` [Example 3, 17α-Ethinyl-7α-{5-[N-methyl-N-3-(4,4,5,5,5-pentafluoropentylthio)-propylamino]-pentyl}-estra-1,3,5(10)-triene-3,17β-diol]: 0.6 nM and 1 nM.
On the same counts, the results for `CN(CCCCC[C@@H]1Cc2cc(O)ccc2[C@H]2CC[C@]3(C)[C@@H](O)CC[C@H]3[C@H]12)CCS(=O)(=O)CCCC(F)(F)C(F)(F)F` [Example 4, 7α-{5-[N-Methyl-N-2-(4,4,5,5,5-pentafluoropentanesulfonyl)-ethylamino]-pentyl}-estra-1,3,5(10)-triene-3,17β-diol] are 1.3 nM and 0.16 nM.
On the same counts, the results for `CN(CCCCC[C@@H]1Cc2cc(O)ccc2[C@H]2CC[C@]3(C)[C@@H](O)CC[C@H]3[C@H]12)CCCS(=O)(=O)CCCC(F)(F)C(F)(F)F` [Example 5, 7α-{5-[N-Methyl-N-3-(4,4,5,5,5-pentafluoropentanesulfonyl)-propylamino]-pentyl}-estra-1,3,5(10)-triene-3,17β-diol] are 0.66 nM and 0.3 nM.
As for `CN(CCCCC[C@@H]1Cc2cc(O)ccc2[C@H]2CC[C@]3(C)[C@@H](O)CC[C@H]3[C@H]12)CCC[S+]([O-])CCCC(F)(F)C(F)(F)F` (stereo partly drawn) [Example 6, 7α-{5-[N-Methyl-N-3-(4,4,5,5,5-pentafluoropentanesulfinyl)-propylamino]-pentyl}-estra-1,3,5(10)-triene-3,17β-diol], the IC50 in the assay with MVLN cells (MVLN) worked out at 1 nM; against human estrogen receptor it was 0.1 nM.
As to `C[C@]12CC[C@@H]3c4ccc(O)cc4C[C@@H](CCCCCCCCC[S+]([O-])CCCC(F)(F)C(F)(F)F)[C@H]3[C@@H]1CC[C@@H]2O` (stereo partly drawn) [Reference, 7α-[9-(4,4,5,5,5-pentafluoropentanesulfinyl)-nonyl]-estra-1,3,5(10)-triene-3,17β-diol, reference compound], the IC50 in the assay on MVLN cells (MVLN cells, Vit-TK-LUC) was 6 nM. In assay [1], the “inhibition of tumor growth” value is recorded as “only a slight action”.

For orientation: IC50 means the point on the concentration scale where inhibition reaches its midpoint.
